Calls of active or inactive are those of the source.
What was measured:
[1] = target: Peroxisome proliferator-activated receptor gamma/Nuclear receptor coactivator 2 (Homo sapiens, UniProt P37231); test: (§1) TR-FRET dose response biochemical High Throughput Screening assay for agonists of the steroid receptor coactivator 2 (SRC-2) recruitment by the peroxisome proliferator-activated receptor gamma (PPAR gamma): non-selective agonists. [Related pubchem assays: 1297, 1032 ]; format: functional
[2] = target: Peroxisome proliferator-activated receptor gamma/Nuclear receptor coactivator 3 (Homo sapiens, UniProt P37231); test: as §1, with “3 (SRC-3)” for “2 (SRC-2)”, “1301 (Confirmation screen.), 1048 (Primary screen.)]” for “1297, 1032 ]”; format: functional
[3] = target: Peroxisome proliferator-activated receptor gamma/Nuclear receptor coactivator 1 (Homo sapiens, UniProt P37231); test: as §1, with “1 (SRC-1)” for “2 (SRC-2)”, “assays (depositor defined):AID1300, AID1808, AID504735, AID631]” for “assays: 1297, 1032 ]”; format: protein assay
[4] = target: T1, Short transient receptor potential channel 4 (Mus musculus, UniProt Q9QUQ5); test: block of DAMGO-driven TRPC4 calcium entry – cell-based, HEK293 TRPC4/mu-opioid, Fluo-4 calcium, dose response (AID 434942); format: functional;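 also: potency of inhibitors blocking the TRPC4 calcium response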
T1 sequence (Q9QUQ5 whole entry): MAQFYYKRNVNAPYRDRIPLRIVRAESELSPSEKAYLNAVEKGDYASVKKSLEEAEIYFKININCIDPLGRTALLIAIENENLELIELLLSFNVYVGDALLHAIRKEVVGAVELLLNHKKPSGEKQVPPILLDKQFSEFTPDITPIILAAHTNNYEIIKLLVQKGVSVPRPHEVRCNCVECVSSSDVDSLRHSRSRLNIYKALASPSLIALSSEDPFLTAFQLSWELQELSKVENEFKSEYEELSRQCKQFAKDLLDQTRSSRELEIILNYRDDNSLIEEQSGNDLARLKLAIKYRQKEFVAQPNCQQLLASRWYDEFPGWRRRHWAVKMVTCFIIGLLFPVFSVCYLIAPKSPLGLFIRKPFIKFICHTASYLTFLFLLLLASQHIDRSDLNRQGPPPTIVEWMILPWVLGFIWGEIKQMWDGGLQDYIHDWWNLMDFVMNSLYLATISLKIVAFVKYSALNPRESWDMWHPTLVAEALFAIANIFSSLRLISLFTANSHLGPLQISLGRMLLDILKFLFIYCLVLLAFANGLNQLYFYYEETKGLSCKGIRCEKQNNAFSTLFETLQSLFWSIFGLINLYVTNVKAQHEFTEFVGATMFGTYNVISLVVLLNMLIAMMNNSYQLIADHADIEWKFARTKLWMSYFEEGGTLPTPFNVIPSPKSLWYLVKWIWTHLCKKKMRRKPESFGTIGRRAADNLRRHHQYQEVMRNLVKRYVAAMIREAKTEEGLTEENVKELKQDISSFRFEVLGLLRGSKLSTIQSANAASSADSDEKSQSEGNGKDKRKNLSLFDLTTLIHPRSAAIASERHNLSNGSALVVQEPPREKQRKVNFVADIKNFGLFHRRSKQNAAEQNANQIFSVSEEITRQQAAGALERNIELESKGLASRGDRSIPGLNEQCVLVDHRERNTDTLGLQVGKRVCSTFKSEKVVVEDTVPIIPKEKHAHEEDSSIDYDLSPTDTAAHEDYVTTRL

[5] = target: T2, Heat shock factor protein 1 (Mus musculus, UniProt P38532); test: decrease of HSF1-responsive luciferase luminescence – cell-based, NIH3T3, dose retest, confirmation (AID 2382); format: functional;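 also: NIH3T3 fibroblasts with HSF1-driven luciferase reporter stressed by proteasome inhibitor MG132; luminescence from HSF1-driven luciferase expression after 8 hours of MG132 stress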
T2 sequence (P38532 whole entry): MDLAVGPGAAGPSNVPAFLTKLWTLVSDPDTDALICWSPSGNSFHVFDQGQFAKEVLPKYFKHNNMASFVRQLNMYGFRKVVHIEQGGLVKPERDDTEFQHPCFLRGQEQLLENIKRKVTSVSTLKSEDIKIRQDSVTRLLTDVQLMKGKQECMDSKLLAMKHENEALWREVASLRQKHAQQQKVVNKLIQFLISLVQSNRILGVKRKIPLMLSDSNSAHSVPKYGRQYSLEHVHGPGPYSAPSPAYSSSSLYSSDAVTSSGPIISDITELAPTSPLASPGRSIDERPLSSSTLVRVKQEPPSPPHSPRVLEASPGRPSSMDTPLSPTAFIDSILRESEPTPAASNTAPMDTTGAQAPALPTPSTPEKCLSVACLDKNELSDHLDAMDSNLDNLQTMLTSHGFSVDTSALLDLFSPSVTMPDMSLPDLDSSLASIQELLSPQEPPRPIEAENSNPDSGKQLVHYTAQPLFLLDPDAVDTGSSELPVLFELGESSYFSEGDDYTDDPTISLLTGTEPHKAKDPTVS

[6] = target: T3, Ubiquitin-conjugating enzyme E2 N (Homo sapiens, UniProt P61088); format: functional;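 also: Dose-response confirmation in a TR-FRET assay detecting UBC13-driven polyubiquitin chain formation, inhibition measured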
T3 sequence (P61088 whole entry): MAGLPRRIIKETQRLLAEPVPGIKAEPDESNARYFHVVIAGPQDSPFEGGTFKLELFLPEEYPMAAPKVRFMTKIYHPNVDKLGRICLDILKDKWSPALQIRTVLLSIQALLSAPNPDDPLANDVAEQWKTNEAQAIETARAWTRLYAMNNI

[7] = HEK-293T viability loss after treatment – luminescence, T-cell screen hits, cytotoxicity control for TCR NF-kB inhibitor project, dose response (AID 489026); format: functional, cell-based;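 also: cells exposed to compound about 14 hours before the viability readout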
[8] = target: T4, Lysosomal acid glucosylceramidase (Homo sapiens, UniProt P04062); test: Dose response cell-based high throughput screening assay to identify enhancers of beta-glucosidase activity. [Related pubchem assays: 784 ]; format: functional
T4 sequence (P04062 whole entry): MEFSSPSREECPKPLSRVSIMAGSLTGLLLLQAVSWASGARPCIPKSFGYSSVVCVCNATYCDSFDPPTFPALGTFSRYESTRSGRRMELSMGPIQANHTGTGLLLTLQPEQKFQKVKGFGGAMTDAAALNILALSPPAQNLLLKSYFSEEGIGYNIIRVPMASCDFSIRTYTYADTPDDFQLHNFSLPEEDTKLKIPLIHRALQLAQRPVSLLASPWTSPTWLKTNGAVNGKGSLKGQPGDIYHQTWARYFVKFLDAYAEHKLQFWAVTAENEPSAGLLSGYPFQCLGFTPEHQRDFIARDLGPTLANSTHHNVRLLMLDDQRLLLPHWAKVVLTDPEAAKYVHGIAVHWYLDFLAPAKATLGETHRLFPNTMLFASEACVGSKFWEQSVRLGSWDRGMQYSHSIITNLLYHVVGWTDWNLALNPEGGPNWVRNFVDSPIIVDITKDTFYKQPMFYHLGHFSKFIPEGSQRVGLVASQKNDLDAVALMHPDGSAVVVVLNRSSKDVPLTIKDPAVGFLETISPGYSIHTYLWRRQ

Cytochrome P450 3A4 = Cytochrome P450 3A4 (Homo sapiens, UniProt P08684); conditions: Potency;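 also: confirmatory qHTS run detecting inhibitors and substrates of CYP3A4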
Cytochrome P450 2C19 = Cytochrome P450 2C19 (Homo sapiens, UniProt P33261); test: Cytochrome panel assay with activity outcomes. Panel member name: p450-cyp2c19 Compounds with AC50 equal or less than 10 uM are considered active; format: functional
Trypsin = Trypsin (Sus scrofa, UniProt P00761); test: trypsin protease activity blockade – biochemical, quenched peptide fluorescence, cherry-pick, selectivity assay for Rce1 protease inhibitor project, dose response (AID 488789)
SUMO-activating enzyme = SUMO-activating enzyme (Homo sapiens, UniProt Q9UBT2); test: blockers of SAE1/SAE2–UBC9 SUMO transfer – biochemical, HTRF, uHTS, primary screen (AID 2006); format: protein-complex assay
Nonstructural protein 1 = Nonstructural protein 1 (Influenza A virus, UniProt Q194T2); format: functional, Influenza A virus (A/California/07/2009(H1N1))
[9] = target: T5, DNA repair protein RAD52 homolog (Homo sapiens, UniProt P43351); format: functional, biochemical
T5 sequence (P43351 whole entry): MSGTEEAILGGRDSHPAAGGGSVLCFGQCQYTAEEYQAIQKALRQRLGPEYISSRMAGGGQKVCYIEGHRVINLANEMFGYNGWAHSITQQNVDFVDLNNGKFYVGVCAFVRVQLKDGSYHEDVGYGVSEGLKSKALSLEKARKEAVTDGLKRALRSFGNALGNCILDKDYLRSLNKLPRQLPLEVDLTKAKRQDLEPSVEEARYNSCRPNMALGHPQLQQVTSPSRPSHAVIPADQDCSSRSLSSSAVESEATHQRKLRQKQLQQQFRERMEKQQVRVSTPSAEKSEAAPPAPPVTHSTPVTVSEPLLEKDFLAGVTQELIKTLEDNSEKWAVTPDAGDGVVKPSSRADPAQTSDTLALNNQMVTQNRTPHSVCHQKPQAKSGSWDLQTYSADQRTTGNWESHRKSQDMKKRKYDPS

[10] = target: T6, Calpain-2 catalytic subunit (Sus scrofa, UniProt P43367); test: m-calpain protease blockers, concentration series – biochemical, fluorogenic peptide substrate, dose response (AID 1420); format: functional
T6 sequence (P43367 whole entry): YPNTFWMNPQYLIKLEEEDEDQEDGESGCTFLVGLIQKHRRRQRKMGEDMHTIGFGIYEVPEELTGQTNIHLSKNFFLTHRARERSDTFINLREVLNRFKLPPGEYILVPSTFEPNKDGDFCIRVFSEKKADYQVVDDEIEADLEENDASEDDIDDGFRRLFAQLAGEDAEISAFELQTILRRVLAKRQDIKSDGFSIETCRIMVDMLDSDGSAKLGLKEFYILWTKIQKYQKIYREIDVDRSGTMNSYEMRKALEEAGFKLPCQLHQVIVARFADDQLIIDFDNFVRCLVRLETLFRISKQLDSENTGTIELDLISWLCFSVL

Chain of Cytochrome P450 3A4 (P08684 whole entry): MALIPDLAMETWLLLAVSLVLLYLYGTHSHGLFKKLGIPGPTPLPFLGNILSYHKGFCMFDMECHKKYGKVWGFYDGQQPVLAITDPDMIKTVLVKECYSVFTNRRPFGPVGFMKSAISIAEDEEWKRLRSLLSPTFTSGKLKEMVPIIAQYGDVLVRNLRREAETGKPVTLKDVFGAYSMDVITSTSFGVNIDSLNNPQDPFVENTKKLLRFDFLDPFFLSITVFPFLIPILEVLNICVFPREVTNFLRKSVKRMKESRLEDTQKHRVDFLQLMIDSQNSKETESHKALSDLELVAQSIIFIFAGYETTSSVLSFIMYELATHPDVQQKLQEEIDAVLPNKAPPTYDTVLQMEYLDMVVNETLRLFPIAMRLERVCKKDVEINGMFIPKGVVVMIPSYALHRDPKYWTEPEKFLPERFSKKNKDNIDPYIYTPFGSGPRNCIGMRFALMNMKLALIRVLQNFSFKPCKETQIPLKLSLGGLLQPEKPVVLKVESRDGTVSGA
Chain of Peroxisome proliferator-activated receptor gamma/Nuclear receptor coactivator 1 (P37231 whole entry): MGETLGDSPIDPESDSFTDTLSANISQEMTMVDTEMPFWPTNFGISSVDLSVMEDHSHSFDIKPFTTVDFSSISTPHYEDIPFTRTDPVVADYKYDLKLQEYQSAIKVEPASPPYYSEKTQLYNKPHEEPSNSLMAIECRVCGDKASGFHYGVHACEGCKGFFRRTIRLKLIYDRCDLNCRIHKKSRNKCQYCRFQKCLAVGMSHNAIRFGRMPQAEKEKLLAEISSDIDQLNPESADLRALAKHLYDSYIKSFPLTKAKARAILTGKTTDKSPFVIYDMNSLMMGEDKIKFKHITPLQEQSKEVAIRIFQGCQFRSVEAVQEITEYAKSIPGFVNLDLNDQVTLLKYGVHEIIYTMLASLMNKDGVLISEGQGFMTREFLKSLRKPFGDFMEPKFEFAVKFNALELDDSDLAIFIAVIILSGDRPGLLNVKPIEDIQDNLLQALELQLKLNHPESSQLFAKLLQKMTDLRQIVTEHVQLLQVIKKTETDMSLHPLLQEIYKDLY
Chain of Peroxisome proliferator-activated receptor gamma/Nuclear receptor coactivator 1 (Q15788 whole entry, further chain): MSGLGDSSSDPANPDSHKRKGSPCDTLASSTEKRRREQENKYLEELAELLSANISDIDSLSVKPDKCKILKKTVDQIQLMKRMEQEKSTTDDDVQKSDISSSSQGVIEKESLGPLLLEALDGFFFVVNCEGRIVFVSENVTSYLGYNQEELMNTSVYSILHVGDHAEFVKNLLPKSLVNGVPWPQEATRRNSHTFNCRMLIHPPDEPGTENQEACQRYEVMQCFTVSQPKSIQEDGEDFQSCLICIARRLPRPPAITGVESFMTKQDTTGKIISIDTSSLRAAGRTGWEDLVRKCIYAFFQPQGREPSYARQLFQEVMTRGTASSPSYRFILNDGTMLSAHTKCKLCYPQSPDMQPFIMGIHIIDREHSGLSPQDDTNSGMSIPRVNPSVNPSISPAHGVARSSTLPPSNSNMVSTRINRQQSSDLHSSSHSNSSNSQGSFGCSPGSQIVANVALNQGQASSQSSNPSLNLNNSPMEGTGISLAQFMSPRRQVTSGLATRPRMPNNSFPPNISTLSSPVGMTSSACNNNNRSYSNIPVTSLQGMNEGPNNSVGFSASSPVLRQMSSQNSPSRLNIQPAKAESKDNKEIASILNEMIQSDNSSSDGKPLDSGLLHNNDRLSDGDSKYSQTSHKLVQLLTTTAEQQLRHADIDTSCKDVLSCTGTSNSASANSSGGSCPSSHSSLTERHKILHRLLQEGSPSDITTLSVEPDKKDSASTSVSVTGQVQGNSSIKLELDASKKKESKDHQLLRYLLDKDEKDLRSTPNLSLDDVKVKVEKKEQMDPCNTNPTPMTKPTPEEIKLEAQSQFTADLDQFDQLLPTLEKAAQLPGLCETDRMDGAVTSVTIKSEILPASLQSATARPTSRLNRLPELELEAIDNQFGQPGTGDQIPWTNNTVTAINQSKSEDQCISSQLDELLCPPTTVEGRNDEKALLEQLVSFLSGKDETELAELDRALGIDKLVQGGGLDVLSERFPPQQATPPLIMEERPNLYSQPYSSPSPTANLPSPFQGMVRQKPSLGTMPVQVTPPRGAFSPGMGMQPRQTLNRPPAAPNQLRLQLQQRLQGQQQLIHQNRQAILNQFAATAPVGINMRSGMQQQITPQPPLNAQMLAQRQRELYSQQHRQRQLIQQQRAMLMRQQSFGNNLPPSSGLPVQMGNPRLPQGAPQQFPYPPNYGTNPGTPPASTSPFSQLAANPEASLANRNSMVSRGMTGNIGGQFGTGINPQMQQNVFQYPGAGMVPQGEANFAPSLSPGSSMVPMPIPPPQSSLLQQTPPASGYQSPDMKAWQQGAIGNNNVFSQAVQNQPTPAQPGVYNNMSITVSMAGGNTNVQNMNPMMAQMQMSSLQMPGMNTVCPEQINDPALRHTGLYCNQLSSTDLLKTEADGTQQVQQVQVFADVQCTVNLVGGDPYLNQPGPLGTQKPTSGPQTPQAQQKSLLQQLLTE
Chain of Peroxisome proliferator-activated receptor gamma/Nuclear receptor coactivator 2 (P37231 whole entry): as the sequence (P37231 whole entry) above
Chain of Peroxisome proliferator-activated receptor gamma/Nuclear receptor coactivator 2 (Q15596 whole entry, further chain): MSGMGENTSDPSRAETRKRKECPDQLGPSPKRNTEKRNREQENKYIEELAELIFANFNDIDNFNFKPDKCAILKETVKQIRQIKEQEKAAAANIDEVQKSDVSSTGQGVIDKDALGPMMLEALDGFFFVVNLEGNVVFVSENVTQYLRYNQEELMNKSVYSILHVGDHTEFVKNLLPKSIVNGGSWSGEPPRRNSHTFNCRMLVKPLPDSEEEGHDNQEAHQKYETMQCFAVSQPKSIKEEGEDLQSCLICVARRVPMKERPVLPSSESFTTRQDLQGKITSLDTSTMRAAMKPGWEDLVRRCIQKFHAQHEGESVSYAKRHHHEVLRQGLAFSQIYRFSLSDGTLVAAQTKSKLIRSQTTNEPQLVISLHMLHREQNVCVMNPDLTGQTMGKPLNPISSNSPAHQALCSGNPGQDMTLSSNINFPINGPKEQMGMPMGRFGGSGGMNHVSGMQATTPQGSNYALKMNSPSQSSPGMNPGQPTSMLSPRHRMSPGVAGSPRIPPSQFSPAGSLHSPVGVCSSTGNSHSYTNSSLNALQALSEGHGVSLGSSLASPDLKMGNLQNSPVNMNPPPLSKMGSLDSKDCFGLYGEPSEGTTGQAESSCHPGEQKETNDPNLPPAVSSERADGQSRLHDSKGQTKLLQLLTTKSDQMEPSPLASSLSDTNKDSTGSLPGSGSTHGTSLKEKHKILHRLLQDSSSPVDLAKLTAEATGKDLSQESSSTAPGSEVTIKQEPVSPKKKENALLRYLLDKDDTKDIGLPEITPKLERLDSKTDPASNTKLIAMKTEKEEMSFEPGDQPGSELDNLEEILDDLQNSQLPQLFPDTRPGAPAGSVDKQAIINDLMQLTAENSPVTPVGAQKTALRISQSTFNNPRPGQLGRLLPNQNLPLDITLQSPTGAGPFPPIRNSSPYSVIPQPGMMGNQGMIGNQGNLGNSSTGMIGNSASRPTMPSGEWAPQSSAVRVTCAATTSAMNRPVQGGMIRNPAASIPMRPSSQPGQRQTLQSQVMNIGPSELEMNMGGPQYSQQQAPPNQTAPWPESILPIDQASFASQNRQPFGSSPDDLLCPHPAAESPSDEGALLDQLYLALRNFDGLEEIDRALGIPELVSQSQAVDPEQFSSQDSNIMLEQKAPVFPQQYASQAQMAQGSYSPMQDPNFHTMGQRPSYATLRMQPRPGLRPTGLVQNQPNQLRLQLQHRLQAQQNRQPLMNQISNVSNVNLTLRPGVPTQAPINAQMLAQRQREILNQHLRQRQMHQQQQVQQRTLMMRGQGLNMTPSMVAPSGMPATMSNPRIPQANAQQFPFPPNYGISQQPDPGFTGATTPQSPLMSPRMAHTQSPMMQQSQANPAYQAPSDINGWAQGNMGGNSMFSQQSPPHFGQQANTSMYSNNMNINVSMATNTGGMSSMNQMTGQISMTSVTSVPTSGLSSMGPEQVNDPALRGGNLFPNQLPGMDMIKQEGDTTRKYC
Chain of Cytochrome P450 2C19 (P33261 whole entry): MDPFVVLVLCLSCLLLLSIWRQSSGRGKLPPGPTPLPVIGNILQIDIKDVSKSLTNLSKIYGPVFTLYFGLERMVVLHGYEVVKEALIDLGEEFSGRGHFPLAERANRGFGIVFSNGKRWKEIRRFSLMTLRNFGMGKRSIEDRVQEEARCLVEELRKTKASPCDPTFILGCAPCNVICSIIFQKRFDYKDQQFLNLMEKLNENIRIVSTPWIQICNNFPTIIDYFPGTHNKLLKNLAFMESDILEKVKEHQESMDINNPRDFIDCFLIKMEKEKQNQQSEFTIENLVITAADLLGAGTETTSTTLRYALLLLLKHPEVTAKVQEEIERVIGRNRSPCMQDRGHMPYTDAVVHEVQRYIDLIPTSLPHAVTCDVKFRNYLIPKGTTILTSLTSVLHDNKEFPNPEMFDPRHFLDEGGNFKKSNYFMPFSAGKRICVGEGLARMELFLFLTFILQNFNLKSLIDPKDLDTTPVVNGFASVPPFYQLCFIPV

## O=C(Oc1ccccc1)Oc1ccc2c(c1)oc(=O)c1ccccc12
[1]
  EC50: 64.1 µM (not active)
[2]
  EC50: > 79.4 µM (not active)
[3]
  EC50: > 79.4 µM (inactive)

## Nc1c2c(nc3ccccc13)N(c1ccccc1)CC2
[4]
  EC50: 1.88 µM (active)
[5]
  EC50: > 195 µM (not active)

## O=C(NCCCN1CCCCC1)C1CCN(c2ncnc3c2nc2n3CCCCC2)CC1
[6]
  IC50: > 20 µM (inactive)

## Cc1n[nH]c(C)c1CCCCOc1ccccc1
[4]
  EC50: 3.76 µM (active)

## CCOCCCNC(=O)c1cc2c(=O)n3cccc(C)c3nc2n1C
[7]
  IC50: > 80 µM (inactive)

## OC(COCC1CC=CCC1)Cn1cnc2ccccc21 (centres undefined)
[8]
  EC50: > 50 µM (not active)

## CCc1ccc(-c2cc(C(=O)N/N=C/c3ccccn3)[nH]n2)cc1
[6]
  IC50: > 20 µM (inactive)

## Cc1ccc(-c2csc(N3CCN(c4cc5c(cc4Cl)nc(C)n5CCN4CCCCC4)CC3)n2)cc1
[6]
  IC50: > 20 µM (inactive)

## COC(=O)C1=C(C)N(Cc2ccccc2)[C@]23O[C@](C(=O)OC)(C(=O)N2C1c1ccccc1)C(C(=O)OC)=C3C(=O)OC (some centres undefined)
Cytochrome P450 3A4
  AC50: 3.16 µM (inconclusive)

## CCOCc1cn(CC(=O)c2ccc(Cl)cc2)c(C)nc1=N
[4]
  EC50: 2.99 µM (active)

## Cc1nonc1NC(=O)OCCN1CCOC1=O
Cytochrome P450 2C19
  AC50: inconclusive
[8]
  EC50: > 50 µM (not active)

## COC(=O)N1C2(C=CC1(C)C(=O)NCc1ccc(N(C)C)cc1)CCCCC2 (centres undefined)
Cytochrome P450 3A4
  AC50: 0.501 µM (inconclusive)

## COCCCn1c(SCC(=O)OC2CCCCC2)nnc1-c1ccco1
[8]
  EC50: > 50 µM (not active)

## O=C1C(Cc2c[nH]c3ccccc23)NC(=S)N1Cc1ccccc1 (centres undefined)
Trypsin
  AC50: 14.3 µM (active)

## Cc1ccc2[nH]c3c(c2c1)CN(C(=O)CN1CCCc2ccccc21)CC3
SUMO-activating enzyme
  IC50: 69.6 µM (active)

## Cn1c(NCc2ccccc2O)nc2ccccc21
[4]
  EC50: 7.5 µM (active)

## NS(=O)(=O)c1ccc(-c2ccc(/C=C3\C(=O)Nc4cc(Cl)ccc43)o2)cc1
[1]
  EC50: 9.96 µM (active)
[2]
  EC50: > 26.5 µM (not active)
[3]
  EC50: 19.7 µM (inactive)

## CN1CCN(C2CCN(Cc3ccc(O)c4ncccc34)CC2)CC1
[6]
  IC50: > 20 µM (inactive)
Nonstructural protein 1
  IC50: 5.84 µM (active)
[9]
  AC50: 1.11 µM (active)

## FC(F)(F)c1ccc(C2[C@H]3CN(Cc4ccc(-c5ccccc5)cc4)[C@H](c4ccccc4)C34CC2(c2ccccc2)C4)cc1 (some centres undefined)
Cytochrome P450 3A4
  AC50: 25.1 µM (inconclusive)

## Nc1nonc1-c1noc(CCCCCN2C(=O)c3ccccc3C2=O)n1
[8]
  EC50: > 10 µM (not active)
[10]
  IC50: 2.74 µM (not active)
